US4738971A, “N-aryl-1,2-dihydro-4-substituted-1-alkyl-2-oxo-quinoline-3-carboxamides” (priority 1981, dated 1988)

Key:
[1] = test system: delayed hypersensitivity reaction (pertussis vaccine pleurisy); assay: pertussis vaccine pleurisy test in rats; type: in vivo, rat (male Sprague-Dawley); details: 10 mg/kg p.o.; for change in vivo at 10 mg/kg: Rattus norvegicus, po, 48 h, once daily day 10 to day 13, vs control, preliminary, read-out: Enhancement of the delayed hypersensitivity reaction assessed by the exudate vol.
In short: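 Male Sprague-Dawley rats (250-275 g, ≥10/group) sensitized day 0 with heat-killed B. pertussis in Freund's incomplete adjuvant into hind and forepaw, challenged intrapleurally day 12. Compounds in aqueous methocel given intragastrically once daily days 10-13. Pleural exudate volume measured day 14, expressed as percent of methocel control.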

[2] = test system: carrageenan-induced edema; assay: carrageenan edema test in rats; type: in vivo, rat (female Sprague-Dawley); details: for change in vivo at 80 mg/kg: Rattus norvegicus, po, 80 mg/kg p.o., 30 min before carrageenan, edema weight 3 h after, vs control, preliminary, read-out: Potentiation of the carrageenan edema, %; for significant potentiation of the carrageenan edema: dose within the range 10-160 mg/kg p.o.
In short: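 Female Sprague-Dawley rats (110-120 g, ≥10 per group) received compound intragastrically in aqueous methocel 30 min before plantar carrageenan injection into the right hind paw. At 3 h, right minus left paw weight gave edema weight, expressed as percent of methocel controls.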

[3] = test system: delayed hypersensitivity reaction (adjuvant arthritis, Mycobacterium butyricum); assay: adjuvant arthritis test in rats; type: in vivo, rat (male Lister hooded); details: for change in vivo at 20 mg/kg: 20 mg/kg p.o.; for change in vivo at 40 mg/kg / significant potentiating effect in the adjuvant arthritis test: 40 mg/kg p.o.; for change in vivo at 10 mg/kg: 10 mg/kg p.o.
Description: (§1) The adjuvant arthritis test in rats produces a measureable extent of a delayed hypersensitivity reaction and can be used for a determination of variations in the extent of the delayed hypersensitivity reaction upon drug administration to the host. An increase in the extent of the delayed hypersensitivity reaction upon drug administration consequently indicates enhanced cell-mediated immunity in the host.
This example illustrates the effect of the compounds of the general formula I in the adjuvant arthritis test in rats.
as §1, with “produces” for “produces a measureable extent of”, “variations” for “variations in the extent”
A modification of a method described in (12) was used. Male Lister hooded rats weighing 250-275 g were used. At least 9 animals were used in each experimental group.
A single intradermal injection of 0.5 mg/0.1 ml heat killed Mycobacterium butyricum suspended in sterile liquid paraffinum was given into the right hind foot of all rats. After this injection, day 0, the volume of the left hind paw, measured by water displacement, was followed to the end of the experiment.
The substances suspended in aqueous methocel solution 10 ml/kg were given intragastrically. The control group was given methocel solution 10 ml/kg. The different groups of animals were thus treated once daily from day -4 to day 14. The effect of the substances was assessed by the left foot volume expressed in percent after comparison with the control groups.

mice = mice p.o.; reference 13; cited from earlier work
[4] = Rattus norvegicus, po, 336 h, once daily day -4 to day 14, vs control, preliminary, read-out: Increase of the volume of the left foot

Compound	change in vivo at 10 mg/kg [1]	change in vivo at 80 mg/kg [2]	change in vivo at 40 mg/kg [3, 4]	significant enhancing effect in the pertussis vaccine pleurisy test [1]	significant potentiating effect in the adjuvant arthritis test [3]	further results
Cn1c(=O)c(C(=O)Nc2ccccc2)c(O)c2ccccc21 [1:1, N-phenyl-1,2-dihydro-4-hydroxy-1-methyl-2-oxo-quinoline-3-carboxamide]	55%	40%	41%	–	–	change in vivo at 20 mg/kg [3, 4]: 50%
COc1ccc2c(c1)c(O)c(C(=O)Nc1ccccc1)c(=O)n2C [1:2, N-phenyl-1,2-dihydro-4-hydroxy-6-methoxy-1-methyl-2-oxo-quinoline-3-carboxamide]	–	61%	–	significant enhancing effect	significant potentiating effect	–
Cn1c(=O)c(C(=O)Nc2ccc(Cl)cc2)c(O)c2ccccc21 [1:9, N-/4-chlorophenyl/-1,2-dihydro-4-hydroxy-1-methyl-2-oxo-quinoline-3-carboxamide]	–	48%	–	significant enhancing effect	significant potentiating effect	–
CCn1c(=O)c(C(=O)Nc2ccccc2)c(O)c2ccccc21 [1:10, N-phenyl-1,2-dihydro-1-ethyl-4-hydroxy-2-oxo-quinoline-3-carboxamide]	30%	68%	–	–	significant potentiating effect	–
CN(C)c1ccc(NC(=O)c2c(O)c3ccccc3n(C)c2=O)cc1 [1:11, N-/4-dimethylaminophenyl/-1,2-dihydro-4-hydroxy-1-methyl-2-oxo-quinoline-3-carboxamide]	37%	76%	45%	–	–	–
Cn1c(=O)c(C(=O)Nc2ccc(CC(=O)O)cc2)c(O)c2ccccc21 [1:12, N-/4-carboxymethylphenyl/-1,2-dihydro-4-hydroxy-1-methyl-2-oxo-quinoline-3-carboxamide]	65%	29%	–	–	significant potentiating effect	–
Cn1c(=O)c(C(=O)Nc2ccccc2)c(O)c2c(F)cccc21 [1:19, N-phenyl-1,2-dihydro-5-fluoro-4-hydroxy-1-methyl-2-oxo-quinoline-3-carboxamide]	–	67%	–	significant enhancing effect	significant potentiating effect	–
COc1cccc2c(O)c(C(=O)Nc3ccccc3)c(=O)n(C)c12 [1:22, N-phenyl-1,2-dihydro-4-hydroxy-8-methoxy-1-methyl-2-oxo-quinoline-3-carboxamide]	–	58%	–	significant enhancing effect	significant potentiating effect	–
CN(C(=O)c1c(O)c2ccccc2n(C)c1=O)c1ccccc1 [1:43, N-phenyl-N-methyl-1,2-dihydro-4-hydroxy-1-methyl-2-oxo-quinoline-3-carboxamide]	70%	84%	–	–	significant potentiating effect	change in vivo at 10 mg/kg [3, 4]: 48%
O=C(Nc1ccccc1)c1c(O)c2cccc3c2n(c1=O)CC3 [2:2, N-phenyl-1,2-dihydro-1,8-ethylene-4-hydroxy-2-oxo-quinoline-3-carboxamide]	64%	43%	40%	–	–	–
O=C(Nc1ccccc1)c1c(O)c2cccc3c2n(c1=O)CCC3 [2:3, N-phenyl-1,2-dihydro-4-hydroxy-2-oxo-1,8-trimethylene-quinoline-3-carboxamide]	66%	61%	39%	–	–	–
COc1c(C(=O)Nc2ccccc2)c(=O)n(C)c2ccccc12 [6:1, N-phenyl-1,2-dihydro-4-methoxy-1-methyl-2-oxo-quinoline-3-carboxamide]	91%	60%	34%	–	–	–
Cn1c(=O)c(C(=O)Nc2nccs2)c(O)c2ccccc21 [7:1, N-(2-thiazolyl)-1,2-dihydro-4-hydroxy-1-methyl-2-oxo-quinoline-3-carboxamide]	81%	84%	35%	–	–	change in vivo at 20 mg/kg [3, 4]: 44%
Cn1c(=O)c(C(=O)Nc2cnccn2)c(O)c2ccccc21 [7:4, N-pyrazinyl-1,2-dihydro-4-hydroxy-1-methyl-2-oxo-quinoline-3-carboxamide]	27%	34%	29%	–	–	–
CN(C)c1ccc(NC(=O)c2c(O)c3cc(N(C)C)cc4c3n(c2=O)CCC4)cc1 [13:3, N-(4-dimethylaminophenyl)-1,2-dihydro-6-dimethylamino-4-hydroxy-2-oxo-1.8-trimethylene-quinoline-3-carboxamide]	–	–	–	significant enhancing effect	significant potentiating effect	significant potentiation of the carrageenan edema [2]: potentiate significantly
CCN(C(=O)c1c(O)c2ccccc2n(C)c1=O)c1ccccc1 [21:5, N-ethyl-N-phenyl-1,2-dihydro-4-hydroxy-1-methyl-2-oxo-quinoline-3-carboxamide]	29%	–	–	–	significant potentiating effect	significant potentiation of the carrageenan edema [2]: potentiate significantly
COc1ccc(N(C)C(=O)c2c(O)c3ccccc3n(C)c2=O)cc1 [21:6, N-(4-methoxyphenyl)-N-methyl-1,2-dihydro-4-hydroxy-1-methyl-2-oxo-quinoline-3-carboxamide]	90%	38%	–	–	–	change in vivo at 10 mg/kg [3, 4]: 41%
CN(C(=O)c1c(O)c2ccccc2n(C)c1=O)c1ccccn1 [21:7, N-methyl-N-(2-pyridyl)-1,2-dihydro-4-hydroxy-1-methyl-2-oxo-quinoline-3-carboxamide]	21%	–	–	–	significant potentiating effect	significant potentiation of the carrageenan edema [2]: potentiate significantly
CN(C(=O)c1c(O)c2ccccc2n(C)c1=O)c1ccc(Cl)cc1 [21:9, N-(4-chlorophenyl)-N-methyl-1,2-dihydro-4-hydroxy-1-methyl-2-oxo-quinoline-3-carboxamide]	84%	52%	–	–	–	change in vivo at 10 mg/kg [3, 4]: 51%
COc1ccc(N(C)C(=O)c2c(O)c3cc(OC)ccc3n(C)c2=O)cc1 [21:14, N-(4-methoxyphenyl)-N-methyl-1,2-dihydro-4-hydroxy-6-methoxy-1-methyl-2-oxo-quinoline-3-carboxamide]	–	–	–	significant enhancing effect	significant potentiating effect	significant potentiation of the carrageenan edema [2]: potentiate significantly
CN(C(=O)c1c(O)c2ccccc2n(C)c1=O)c1ccc(F)cc1 [21:35, N-(4-fluorophenyl)-N-methyl-1,2-dihydro-4-hydroxy-1-methyl-2-oxo-quinoline-3-carboxamide]	–	–	–	significant enhancing effect	significant potentiating effect	significant potentiation of the carrageenan edema [2]: potentiate significantly
c1ccc([C@H]2CN3CCSC3=N2)cc1 [Levamisole, levamisole, reference compound]	13%	–	–	–	–	acute LD50 (mice): 285 mg/kg; change in vivo at 5 mg/kg ([3]; Rattus norvegicus, po, 336 h, 5 mg/kg p.o., once daily day -4 to day 14, vs control, preliminary, read-out: Increase of the volume of the left foot): 4%; change in vivo at 10 mg/kg [3, 4]: 12%
